# Results reported in patent publication EP4480314A1, “BENEFICIAL SALTS FOR ENHANCING BIOCONTROL EFFICACY OF FUNGAL SPORES” (priority 2023, dated 2024).
# What was measured:
# [1] = cited from earlier work
# [2] = cited from earlier work; remark: listed apart in the source
# white flies = conditions: spores of C. fumosorosea supplemented with low concentrations of the acid in the spray liquid; PCT/EP2022/086495; cited from earlier work
# Bemisia tabaci [3] = assay: Insecticidal activity against white flies on single-leaf cotton plants, spray application (Example 1, spores of C. javanica strain Apopka 97); type: in vivo; set-up: expected control (Colby) less than the observed level of control: concentration or dose not given beside the values; conditions: for expected control (Colby) less than the observed level of control: in composition with 1,0E+07 spores/ml C. javanica Apopka 97; for Abbott efficacy: spores 1,0E+07 s/ml, cotton, twelve days after treatment, control pure water; for White fly mortality: composition of spores and salt compared with spores alone or the salt alone
# Bemisia tabaci [4] = assay: Insecticidal activity against white flies on bean plants (Phaseolus vulgaris), microsprayer application (Example 2, spores of C. javanica strain GF 511); type: in vivo
# Method: For testing insecticidal activity against white flies, 9-day-old plants (Phaseolus vulgaris cv. Pérola) with two primary leaves grown with Oxisol (2 L) with fertilizer NPK 5-30-15 were kept in a screenhouse covered with a fine screen fabric (50 mesh). Adult-infested plants with Bemisia tabaci were shaken and placed next to pest-free bean plants (9 days old with two primary leaves) for 6 to 8h to allow oviposition. This exposure provided more than 200 eggs per leaf. Afterwards the plants were transferred to a clean and insect-free room and incubated at 25°C until hatching and development of immobile N2 nymphal stages (10 to 12 days after infestation). Per treatment, seven pots with four bean plants in the two-leave stage were used as biological replicates. The experiment was conducted in a randomized block design in five screenhouse benches, one for each repetition, with the treatments randomized within the block.
# Before spraying, whitefly nymphs were checked for good coverage on the leaves and the infected plants were sprayed with the prepared solutions as detailed above. […] The amount is adjusted in function of the size of the primary leaves in order to ensure a good coverage. Afterwards, the plants are incubated under controlled conditions (30 °C and 40 % RH). Fourteen days after treatment, one plant/pot (two leaves per treatment) were destructively evaluated for insect mortality. Nymphal mortality was assessed under a dissecting stereomicroscope (Leica) at x40 magnification. For confirming the fungal infection, a small red dot was marked on the leaf next to the dead nymphs. The leaves were then incubated inside Gerbox box with a wet cotton added to the leaf petiole for four days at room temperature. The dead marked nymphs presenting sporulation (i.e., mycosed nymphs) were considered infected by the fungus.
# [5] = Table 2, citric acid 0,05%, ammonium citrate di-basic 0,06%, potassium citrate 0,08%
# [6] = Table 1, citric acid 0,1%, glutamic acid monosodic salt 0,08%
compound,measurement,setting,value
O=C(O)C=C(CC(=O)O)C(=O)O [Aconitic acid],pka(1),[1],"2,8"
same,water solubility (g/l) at room temperature,[2],400 g/L
O=C(O)c1cccnc1C(=O)O [Chinolinic acid],water solubility (g/l) at room temperature,[2],10 g/L
O=C(O)c1cccc(C(=O)O)n1 [Dipicolinic acid],efficacy of this entomopathogenic fungus against white flies,white flies,increase the efficacy
O=C(O)c1ccc(C(=O)O)nc1 [Isocinchomeronic acid],pka(1),[1],"2,31"
O=C(O)CC(C(=O)O)C(O)C(=O)O (stereo not shown) [Isocitric acid],water solubility (g/l) at room temperature,[2],53 g/L
CC[C@H](C)[C@H](N)C(=O)O [Isoleucine],pka(1),[1],"2,32"
O=C(O)c1ccnc(C(=O)O)c1 [Lutidinic acid],pka(1),[1],"2,17"
O=C(O)CC(O)C(=O)O (stereo not shown) [Malic acid],water solubility (g/l) at room temperature,[2],558 g/L
N[C@@H](Cc1ccccc1)C(=O)O [Phenylalanine],water solubility (g/l) at room temperature,[2],>10 g/L
O=C(O)c1ccccn1 [Picolinic acid],pka(1),[1],"5,39"
same,water solubility (g/l) at room temperature,[2],887 g/L
N[C@@H](C[SeH])C(=O)O [Selenocysteine],water solubility (g/l) at room temperature,[2],400 g/L
N[C@@H](Cc1c[nH]c2ccccc12)C(=O)O [Tryptophan],pka(1),[1],"2,46"
same,water solubility (g/l) at room temperature,[2],"11,4 g/l"
CC(C)[C@H](N)C(=O)O [Valine],pka(1),[1],"2,39"
O=C(O)CCC(=O)C(=O)O [alpha-ketoglutaric acid],water solubility (g/l) at room temperature,[2],100 g/L
N.N.O=C(O)CC(O)(CC(=O)O)C(=O)O [ammonium citrate di-basic],expected control (Colby) less than the observed level of control,Bemisia tabaci [3]; Table 2,"27,89%"
same,Abbott efficacy,Bemisia tabaci [3]; [5],"6,34"
same,White fly mortality,Bemisia tabaci [3],significantly and synergistically higher
"O=C(O)CC(O)(CC(=O)O)C(=O)O [citric acid, Citric acid, reference compound]",Abbott efficacy,"Bemisia tabaci [4]; Table 3, spores 1,0E+07 s/ml, citric acid 0,05%, glutamic acid monosodium salt 0,08%, all with 0,05% Tween, bean plants, fourteen days after treatment, control Tween 80 (0.05% v/v)",3.56
same,efficacy of this entomopathogenic fungus against white flies,white flies,increase the efficacy
same,expected control (Colby) less than the observed level of control,Bemisia tabaci [3]; Table 1,"11,63%"
same,Abbott efficacy,Bemisia tabaci [3]; [6],"9,86"
same,expected control (Colby) less than the observed level of control,Bemisia tabaci [3]; Table 2,"24,27%"
same,Abbott efficacy,Bemisia tabaci [3]; [5],"7,88"
"N[C@@H](CCC(=O)O)C(=O)[O-].[Na+] [glutamic acid monosodic salt, glutamic acid monosodium salt]",Abbott efficacy,Bemisia tabaci [4],"7,57"
same,expected control (Colby) less than the observed level of control,Bemisia tabaci [4],"11,03%"
same,expected control (Colby) less than the observed level of control,Bemisia tabaci [3]; Table 1,"26,44%"
same,Abbott efficacy,Bemisia tabaci [3]; [6],"-0,34"
same,White fly mortality,Bemisia tabaci [3],significantly and synergistically higher
O=C([O-])CC(O)(CC(=O)[O-])C(=O)[O-].[K+].[K+].[K+] [potassium citrate],expected control (Colby) less than the observed level of control,Bemisia tabaci [3]; Table 2,"11,7%"
same,Abbott efficacy,Bemisia tabaci [3]; [5],"1,74"
same,White fly mortality,Bemisia tabaci [3],significantly and synergistically higher
